Results: patent US20260200885A1, “BENZOPYRONE COMPOUNDS AS WELL AS PREPARATION METHOD THEREFOR AND USE THEREOF” (CHENGDU DI’AO JIUHONG PHARMACEUTICAL FACTORY, priority 2022, published 2026)

Test system: A2780 cells
Experiment: Determination of cell activity (CellTiter-Glo Luminescent Cell Viability Assay)
Format: cell-based
Conditions: Homo sapiens, 168 h; A2780 cells, 7 days treatment, CellTiter-Glo; read-out: IC50
Experimental: To examine the effect of compounds on cell viability, ATP was directly quantified using the CellTiter-Glo Luminescent Cell Viability Assay (Promega) to determine the number of viable cells.
Cell density was selected based on optimal signal intensity and growth curve for the inoculation of A2780 cells. The cells were incubated at 37° C. and 5% C02 overnight. Cells were treated with blank group, DMSO group and compound group, respectively, at 37° C. and 5% C02 for 7 days. The prepared solutions were added to cell wells according to the instructions of CellTiter-Glo (Promega), and shaken at a speed of 400 g for 2 min. Then, the solutions were centrifuged at 1000 g for 2 min and incubated at rest for 30 min to ensure a complete reaction. […] readings were taken using a multi-label microplate reader (Perkin Elmer) to calculate IC50 values.

IC50 [nM]	Structure (SMILES)
100 to 1000	CC(Oc1ccc2c(-c3ccc(F)cc3Cl)cc(=O)oc2c1)C(=O)C1CCN(C)CC1 (centres unmarked) [Compound A-1-7-1-1]
20 to 100	CC(Oc1ccc2c(-c3ccc(F)cc3Cl)cc(=O)oc2c1)C(=O)c1cccc(S(N)(=O)=O)c1 (centres unmarked) [Compound A-1-2-1-40]
100 to 1000	CC(Oc1ccc2c(-c3ccc(F)cc3Cl)cc(=O)oc2c1)C(=O)[C@@H]1CCCNC1 (some centres unmarked) [Compound A-1-8-1-2]
< 20	CC(Oc1ccc2c(-c3ccc(F)cc3Cl)cc(=O)oc2c1)C(=O)C1CCOCC1 (centres unmarked) [Compound A-1-10-1-39]
100 to 1000	CC(Oc1ccc2c(-c3ccc(F)cc3Cl)cc(=O)oc2c1)C(=O)c1ccc2c(c1)OCO2 (centres unmarked) [Compound A-1-11-1-10]
100 to 1000	CC(Oc1ccc2c(-c3ccc(F)cc3Cl)cc(=O)oc2c1)C(=O)C1CCN(C2CC2)CC1 (centres unmarked) [Compound A-1-7-1-2]
20 to 100	CC(Oc1ccc2c(-c3ccc(F)cc3Cl)cc(=O)oc2c1)C(=O)c1ccc2[nH]ccc2c1 (centres unmarked) [Compound A-1-11-1-1]
100 to 1000	CC(Oc1ccc2c(-c3ccc(F)cc3Cl)cc(=O)oc2c1)C(=O)C1CCN(CCO)CC1 (centres unmarked) [Compound A-1-7-1-4]
20 to 100	Cc1cccc(C(=O)C(C)Oc2ccc3c(-c4ccc(F)cc4Cl)cc(=O)oc3c2)c1 (centres unmarked) [Compound A-1-2-1-75]
< 20	CC(=O)NCCc1ccc(C(=O)C(C)Oc2ccc3c(-c4ccc(F)cc4Cl)cc(=O)oc3c2)cc1 (centres unmarked) [Compound A-1-2-1-104]

The next lines start with the compound.

Structure (SMILES)	IC50 [nM]
COc1cccc(C(=O)C(C)Oc2ccc3c(-c4ccc(F)cc4Cl)cc(=O)oc3c2)c1 (centres unmarked) [Compound A-1-2-1-76]	100 to 1000
CC(Oc1ccc2c(-c3ccc(F)cc3Cl)cc(=O)oc2c1)C(=O)c1cccc(F)c1 (centres unmarked) [Compound A-1-2-1-71]	20 to 100
CC(Oc1ccc2c(-c3ccc(F)cc3Cl)cc(=O)oc2c1)C(=O)c1ccc2c(c1)OCCO2 (centres unmarked) [Compound A-1-11-1-13]	100 to 1000
CC(Oc1ccc2c(-c3ccncc3)cc(=O)oc2c1)C(=O)N1CCCC(C#N)C1 (centres unmarked) [Compound A-1-2-6-24]	> 1000
C=Cc1ccccc1-c1cc(=O)oc2cc(OC(C)C(=O)c3cccc(C(=O)O)c3)ccc12 (centres unmarked) [Compound A-1-2-1-103]	100 to 1000
CC(Oc1ccc2c(-c3ccc(F)cc3Cl)cc(=O)oc2c1)C(=O)C1CCNCC1 (stereo not drawn) [α-11]	20 to 100
CC(Oc1ccc2c(-c3ccccc3Br)cc(=O)oc2c1)C(=O)c1cccc(C(=O)O)c1 (centres unmarked) [Compound A-1-2-1-3]	20 to 100
CC(Oc1ccc2c(-c3ccc(F)cc3Cl)cc(=O)oc2c1)C(=O)c1cccc(C#N)c1 (centres unmarked) [Compound A-1-2-1-90]	20 to 100
CC(Oc1ccc2c(-c3ccc(F)cc3Cl)cc(=O)oc2c1)C(=O)c1ccccc1 (centres unmarked) [Compound A-1-2-1-70]	20 to 100
CC(Oc1ccc2c(-c3ccc(F)cc3Cl)cc(=O)oc2c1)C(=O)c1ccc(N)cc1 (centres unmarked) [Compound A-1-2-1-78]	< 20
CC(Oc1ccc2c(-c3ccc(F)cc3Cl)cc(=O)oc2c1)C(=O)c1cc(F)c(O)c(F)c1 (centres unmarked) [Compound A-1-2-1-94]	< 20
CNc1ccc(C(=O)C(C)Oc2ccc3c(-c4ccc(F)cc4Cl)cc(=O)oc3c2)cc1 (centres unmarked) [Compound A-1-2-1-79]	20 to 100
CC(=O)Nc1ccc(C(=O)C(C)Oc2ccc3c(-c4ccc(F)cc4Cl)cc(=O)oc3c2)cc1 (centres unmarked) [Compound A-1-2-1-84]	< 20
CC(Oc1ccc2c(-c3ccc(F)cc3Cl)cc(=O)oc2c1)C(=O)C1CCC(C(=O)[O-])CC1.[Na+] (stereo not drawn) [α-10]	< 20
CC(Oc1ccc2c(-c3ccc(F)cc3Cl)cc(=O)oc2c1)C(=O)C1CCNC1 (centres unmarked) [Compound A-1-10-1-35]	100 to 1000
CC(Oc1ccc2c(-c3ccc(F)cc3Cl)cc(=O)oc2c1)C(=O)c1ccc(N(C)C)cc1 (centres unmarked) [Compound A-1-2-1-80]	20 to 100
CC(Oc1ccc2c(-c3ccc(F)cc3Cl)cc(=O)oc2c1)C(=O)c1cc(F)cc(C(=O)O)c1 (centres unmarked) [Compound A-1-2-1-93]	20 to 100
CC(Oc1ccc2c(-c3ccc(F)cc3Cl)cc(=O)oc2c1)C(=O)C12CC3CC(CC(C3)C1)C2 (centres unmarked) [Compound A-1-12-1-27]	100 to 1000

Test system: not listed separately
Experiment: Pharmacokinetic assay in CD1 mice
Format: in vivo
Conditions: bioavailability, Table I-4
Experimental: pharmacokinetic assay of compounds was carried out in CD1 mice aged 6-8 weeks with IMT1B as a positive control. The compounds and the positive control were dissolved in 30% aqueous hydroxypropyl-β-cyclodextrin solution containing 25% PEG400 and administered via intravenous injection (1 mg/kg) or intragastric administration (5 mg/kg). Blood samples were collected at 0.033, 0.083, 0.25, 0.5, 1, 2, 4, 8, 24 h and 0.083, 0.25, 0.5, 1, 2, 4, 8, 24 h respectively after administration.
The concentration of the compounds in plasma samples was analyzed using the LC-MS/MS method. Pharmacokinetic calculations were performed using WinNonlin (Phoenix™, version 8.3) or other similar software. The following pharmacokinetic parameters were calculated from the plasma concentration vs. time data: for intravenous administration: T1/2, C0, AUClast, AUCinf, MRTinf, Cl, Vss, regression coefficient, etc.; for oral administration: T1/2, Cmax, Tmax, AUClast, AUCinf, bioavailability, etc. The above parameter data were statistically calculated and described using descriptive statistics such as mean value and standard deviation.

F [%]	Structure (SMILES)
102.733	CC(Oc1ccc2c(-c3ccc(F)cc3Cl)cc(=O)oc2c1)C(=O)c1cc(F)cc(C(=O)O)c1 (centres unmarked) [Compound A-1-2-1-93]

Same assay, conditions: comparison in words

maximum plasma concentration Cmax compared with IMT1B	plasma exposure AUC compared with IMT1B	Structure (SMILES)
significantly superior to IMT1B	significantly superior to IMT1B	CC(Oc1ccc2c(-c3ccc(F)cc3Cl)cc(=O)oc2c1)C(=O)c1cc(F)cc(C(=O)O)c1 (centres unmarked) [Compound A-1-2-1-93]

Same assay, conditions: main pharmacokinetic parameters, Table I-4

T1/2 [h]	Structure (SMILES)
11.706	CC(Oc1ccc2c(-c3ccc(F)cc3Cl)cc(=O)oc2c1)C(=O)c1cc(F)cc(C(=O)O)c1 (centres unmarked) [Compound A-1-2-1-93]

Same assay, conditions: mouse, plasma, po, 5 mg/kg, main pharmacokinetic parameters, Table I-4

AUC(0-inf) [µg·h/mL]	AUC(0-t) [µg·h/mL]	Structure (SMILES)
211	155	CC(Oc1ccc2c(-c3ccc(F)cc3Cl)cc(=O)oc2c1)C(=O)c1cc(F)cc(C(=O)O)c1 (centres unmarked) [Compound A-1-2-1-93]

Same assay, conditions: mouse, plasma, po, 5 mg/kg, main pharmacokinetic parameters, Table I-4, read-out: Cmax

Cmax [ng/mL]	Structure (SMILES)
8960	CC(Oc1ccc2c(-c3ccc(F)cc3Cl)cc(=O)oc2c1)C(=O)c1cc(F)cc(C(=O)O)c1 (centres unmarked) [Compound A-1-2-1-93]

Same assay, conditions: mouse, plasma, po, intragastric administration 5 mg/kg, Table I-3, read-out: T1/2 (h) for oral administration (converted)

half-life [h]	Structure (SMILES)
3.57	CC(Oc1ccc2c(-c3ccc(F)cc3Cl)cc(=O)oc2c1)C(=O)c1cccc(S(N)(=O)=O)c1 (centres unmarked) [Compound A-1-2-1-40]
3.78	CC(Oc1ccc2c(-c3ccc(F)cc3Cl)cc(=O)oc2c1)C(=O)C1CCN(C2CC2)CC1 (centres unmarked) [Compound A-1-7-1-2]

The next lines start with the compound.

Structure (SMILES)	half-life [h]
CC(Oc1ccc2c(-c3ccc(F)cc3Cl)cc(=O)oc2c1)C(=O)C1CCNCC1 (stereo not drawn) [α-11]	5.27
CC(Oc1ccc2c(-c3ccc(F)cc3Cl)cc(=O)oc2c1)C(=O)c1cc(F)c(O)c(F)c1 (centres unmarked) [Compound A-1-2-1-94]	4.57
CC(Oc1ccc2c(-c3ccc(F)cc3Cl)cc(=O)oc2c1)C(=O)C1CCC(C(=O)[O-])CC1.[Na+] (stereo not drawn) [α-10]	4.29
CC(Oc1ccc2c(-c3ccc(F)cc3Cl)cc(=O)oc2c1)C(=O)c1cc(F)cc(C(=O)O)c1 (centres unmarked) [Compound A-1-2-1-93]	11.7
